Assay results as given in PMC10762035, “Molecular basis of human trace amine-associated receptor 1 activation” (Nature Communications, 2024).
Changes are numbered by the printed parent chain. Where “and” joins values, the source holds several entries; their conditions need not be identical. Identical values can stand only once.

Assays:
Assay type in all cases: cell-based
[1] = target: T1, β2AR-Nterm-hTA1-F112^3.41W (CryoEM Construct) (Homo sapiens, UniProt Q96RJ0, F112W); experiment: GloSensor cAMP accumulation assay, cryoEM construct;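 further: cells transiently co-transfected with the receptor construct and GloSensor cAMP biosensor, luminescence read after 30 min compound exposure at room temperature in the dark as cAMP accumulation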;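 on Normalized Luminescence Counts (N=2): normalized to the maximum response of β-PEA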
T1 construct: FLAG (N); 10xHis (N); TEV protease site (N); expressed in transfected cells; host or cells: HEK293T
T1 sequence (Q96RJ0 with tags, fused parts or gaps F112W): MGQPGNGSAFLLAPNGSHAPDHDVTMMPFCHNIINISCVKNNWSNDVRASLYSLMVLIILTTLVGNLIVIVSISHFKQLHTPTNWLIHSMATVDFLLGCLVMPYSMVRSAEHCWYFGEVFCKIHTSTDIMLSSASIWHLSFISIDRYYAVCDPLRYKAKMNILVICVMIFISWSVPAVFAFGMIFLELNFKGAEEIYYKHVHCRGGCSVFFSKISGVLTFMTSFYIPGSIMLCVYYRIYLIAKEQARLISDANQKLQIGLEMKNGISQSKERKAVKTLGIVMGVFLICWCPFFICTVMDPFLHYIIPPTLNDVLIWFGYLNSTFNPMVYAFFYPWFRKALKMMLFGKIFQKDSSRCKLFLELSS

[2] = target: T2, hTA1 V184P (Homo sapiens, UniProt Q96RJ0, V184P); experiment: GloSensor cAMP accumulation assay, V184P mutant; conditions: for cAMP accumulation response, single replicate values (source data, Supplementary Figure 5): hTA1 V184P (N=2), log[Compound]
T2 construct: expressed in transfected cells; host or cells: HEK293T
T2 sequence (Q96RJ0 1-339 V184P): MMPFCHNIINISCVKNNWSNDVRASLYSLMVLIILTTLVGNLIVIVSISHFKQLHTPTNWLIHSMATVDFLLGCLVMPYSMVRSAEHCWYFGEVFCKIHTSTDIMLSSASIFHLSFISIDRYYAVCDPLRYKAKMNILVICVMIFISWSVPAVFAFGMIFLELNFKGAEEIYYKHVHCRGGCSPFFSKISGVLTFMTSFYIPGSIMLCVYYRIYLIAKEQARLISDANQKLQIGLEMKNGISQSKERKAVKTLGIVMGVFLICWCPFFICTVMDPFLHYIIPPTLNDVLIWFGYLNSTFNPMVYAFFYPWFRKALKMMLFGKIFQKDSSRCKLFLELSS

[3] = target: T3, hTA1 C178S (Homo sapiens, UniProt Q96RJ0, C178S); experiment: GloSensor cAMP accumulation assay, C178S mutant; conditions: for C178S - Normalized Luminescence Counts (N=2): log[Compound], single replicates
T3 construct: expressed in transfected cells; host or cells: HEK293T
T3 sequence (Q96RJ0 1-339 C178S): T2 sequence (Q96RJ0 1-339 V184P) with C178S, P184V

[4] = target: T4, hTA1 W264F (Homo sapiens, UniProt Q96RJ0, W264F); experiment: GloSensor cAMP accumulation assay, W264F mutant;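 further: cells transiently transfected with receptor plus GloSensor, luminescence read 30 min after agonist addition at room temperature, concentration-response curves fitted by log(agonist) vs response regression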
T4 construct: expressed in transfected cells; host or cells: HEK293T
T4 sequence (Q96RJ0 1-339 W264F): T2 sequence (Q96RJ0 1-339 V184P) with P184V, W264F

[5] = target: T5, hTA1 C88S (Homo sapiens, UniProt Q96RJ0, C88S); experiment: GloSensor cAMP accumulation assay, C88S mutant; conditions: C88S
T5 construct: expressed in transfected cells; host or cells: HEK293T
T5 sequence (Q96RJ0 1-339 C88S): T2 sequence (Q96RJ0 1-339 V184P) with C88S, P184V

[6] = Cryo EM Construct, mean of each independent experiment (3 replicates)
[7] = hTA1 V184P mutant minus WT average
[8] = C178S, each row one experiment (N=2), 3 replicates

NCCc1ccccc1 [β-PEA, β-phenethylamine] was tested, and the “ΔEmax values (each mutant value - WT average), Mean” value ([1]; Cryo EM Construct minus WT average) was 0, the “Emax values, Mean” value [1, 6] was 0.8322 and the “pEC50 values, Mean” value [1, 6] was 7.553 and 7.926. The “Normalized Luminescence Counts (N=2)” value ([1]; CryoEM Construct, log[Compound], M = -5, single replicates) was 99.4824 and 93.6783 and 105.677 and 107.109, the “Span ± SEM (Emax normalized to β-PEA)” value ([1]; CryoEM Construct, n=2) was 100 ± 1.84 and the “pEC50 ± SEM” value ([1]; CryoEM Construct, n=2) was 7.75 ± 0.04. For the same molecule, the EC50 ([1]; CryoEM Construct, n=2, read-out: EC50) was 17.4 nM, the “reduction in potency vs wild type” value ([2]; V184P) was 3 fold and the “Span ± SEM (Emax normalized to β-PEA)” value ([2]; V184P, n=2) was 100 ± 1.96. The “pEC50 ± SEM” value ([2]; V184P, n=2) was 6.49 ± 0.04, the EC50 ([2]; V184P, n=2, read-out: EC50) was 321 nM and the “cAMP accumulation response, single replicate values (source data, Supplementary Figure 5)” value (shortened to “cAMP accumulation response”) ([2]; M = -5) was 83.3536 and 92.5674 and 99.6475 and 104.399 and 96.8854 and 100.441. For the same molecule, the “cAMP accumulation response” value ([2]; M = -5.522) was 95.962 and 88.397 and 84.7115 and 96.8487 and 73.2445 and 97.875, the “cAMP accumulation response” value ([2]; M = -6) was 78.5043 and 69.7754 and 70.1634 and 94.7595 and 71.9984 and 76.7632 and the “cAMP accumulation response” value ([2]; M = -6.522) was 42.813 and 37.5757 and 33.5992 and 65.1077 and 56.2745 and 55.2115. For the same molecule, the “cAMP accumulation response” value ([2]; M = -7) was 14.3957 and 16.7234 and 14.2987 and 30.7277 and 25.9995 and 32.4504, the “cAMP accumulation response” value ([2]; M = -7.522) was 8.4795 and 4.503 and 3.727 and 12.5114 and 6.1339 and 9.909 and the “cAMP accumulation response” value ([2]; M = -8) was 2.078 and 0.1386 and 0.7205 and 5.731 and 6.5 and 4.265. For the same molecule, the “cAMP accumulation response” value ([2]; M = -8.522) was 1.496 and -0.05538 and 0.3326 and 2.249 and 1.809 and 2.505, the “cAMP accumulation response” value ([2]; M = -9) was 1.011 and 0.1386 (2×) and 2.652 and -0.3902 and 1.626 and the “cAMP accumulation response” value ([2]; M = -9.522) was 0.7205 and -0.2494 and 0.4296 and -0.02371 and -1.123 and -0.1703. For the same molecule, the “cAMP accumulation response” value ([2]; M = -10) was 1.205 and -0.05538 and 0.3326 and -0.207 and -0.5002 and 0.4161, the “cAMP accumulation response” value ([2]; M = -10.522) was 0.8175 and 0.6235 and -0.1524 and -0.3169 and -1.27 and -0.6101 and the “cAMP accumulation response” value ([2]; M = -11) was 0.04161 and -0.4433 and -0.1524 and 0.5261 and 0.1229 and -0.4269. For the same molecule, the “cAMP accumulation response” value ([2]; M = -11.522) was 1.205 and 0.1386 and 0.2356 and 0.7826 and 0.5261 and 0.3062, the “cAMP accumulation response” value ([2]; M = -12) was 0.8175 (3×) and -0.3902 and -0.5735 and 0.0496 and the “cAMP accumulation response” value ([2]; M = -12.522) was 2.175 and 1.496 and 1.205 and 0.08625 and 0.1962 and -0.7201. The “ΔEmax values (each mutant value - WT average), Mean” value [2, 7] was 0, the “ΔpEC50 values (each mutant value - WT average), Mean” value [2, 7] was -0.7478 and -0.4527 and the “pEC50 values, Mean” value ([2]; hTA1 V184P mutant, Figure 3B source data, each grid row a separate experiment, 3 replicates) was 6.346 and 6.641. For the same molecule, the “Emax values, Mean” value ([2]; hTA1 V184P mutant, β-PEA set to 100, each grid row a separate experiment, 3 replicates) was 100, the “pEC50 values, Mean” value [3, 8] was 7.235 and 7.223 and the “ΔpEC50 values (each mutant value - WT average), Mean” value [3, 8] was 0.1416 and 0.1292. The “Span ± SEM (Emax normalized to β-PEA)” value ([3]; C178S, n=2) was 100 ± 2.97, the “pEC50 ± SEM” value ([3]; C178S, n=2) was 7.23 ± 0.07 and the EC50 ([3]; C178S, n=2, read-out: EC50) was 59 nM. The “Emax values, Mean” value ([3]; C178S, β-PEA = 100, each row one experiment (N=2), 3 replicates) was 100, the “C178S - Normalized Luminescence Counts (N=2)” value ([3]; M = -5) was 99.3155 and 106.699 and 98.2875 and 86.7589 and 74.9716 and 83.1688 and the “C178S - Normalized Luminescence Counts (N=2)” value ([3]; M = -5.522) was 92.9136 and 85.3902 and 85.0163 and 113.744 and 82.4209 and 115. The “C178S - Normalized Luminescence Counts (N=2)” value ([3]; M = -6) was 105.577 and 101.792 and 96.652 and 125.741 and 90.4686 and 124.155, the “C178S - Normalized Luminescence Counts (N=2)” value ([3]; M = -6.522) was 93.1473 and 96.0445 and 75.0162 and 77.2154 and 68.719 and 87.1478 and the “C178S - Normalized Luminescence Counts (N=2)” value ([3]; M = -7) was 68.3806 and 62.1189 and 51.4645 and 64.3212 and 56.124 and 61.3594. The “C178S - Normalized Luminescence Counts (N=2)” value ([3]; M = -7.522) was 36.8382 and 29.782 and 30.7166 and 32.2204 and 27.7927 and 32.0708, the “C178S - Normalized Luminescence Counts (N=2)” value ([3]; M = -8) was 16.2772 and 19.3614 and 14.922 and 22.976 and 17.1422 and 19.9245 and the “C178S - Normalized Luminescence Counts (N=2)” value ([3]; M = -8.522) was 3.333 and 3.193 and 2.959 and 9.783 and 5.445 and 7.24. The “C178S - Normalized Luminescence Counts (N=2)” value ([3]; M = -9) was 1.604 and 3.099 and 1.838 and 2.393 and 2.184 and 1.825, the “C178S - Normalized Luminescence Counts (N=2)” value ([3]; M = -9.522) was 0.7163 and 0.2957 and -0.07812 and 1.615 and 0.2691 and 1.107 and the “C178S - Normalized Luminescence Counts (N=2)” value ([3]; M = -10) was 1.791 and 0.9967 and 1.277 and -3.171 and -1.3464 and -0.5985. The “C178S - Normalized Luminescence Counts (N=2)” value ([3]; M = -10.522) was -0.5454 and 0.763 and 0.06206 and -2.244 and -1.825 and -1.7054, the “C178S - Normalized Luminescence Counts (N=2)” value ([3]; M = -11) was 0.1088 and 0.5294 and -0.07812 and 0.3289 and 0.7777 and -1.376 and the “C178S - Normalized Luminescence Counts (N=2)” value ([3]; M = -11.522) was 1.37 and -0.1716 and -0.2183 and -0.6583 and -1.287 and 0.3289. The “C178S - Normalized Luminescence Counts (N=2)” value ([3]; M = -12) was -0.7791 and 0.2957 and -0.265 and -2.932 and -0.03006 and 1.645, the “C178S - Normalized Luminescence Counts (N=2)” value ([3]; M = -12.522) was -0.452 and -1.34 and -0.6856 and -1.915 and -0.9575 and -0.4489 and the “ΔEmax values (each mutant value - WT average)” value ([4]; W246F mutant (so in the source) minus WT average) was 0. For the same molecule, the “pEC50 values, Mean” value ([4]; W246F mutant (so in the source), each line an independent experiment, 3 replicates) was 5.329 and 5.8775, the “Emax values, Mean” value ([4]; W246F mutant (so in the source), β-PEA = 100, each line an independent experiment, 3 replicates) was 100 and the “Span ± SEM (Emax normalized to β-PEA)” value ([4]; W264F, n=2) was 100 ± 4.75. The “pEC50 ± SEM” value ([4]; W264F, n=2) was 5.6 ± 0.06, the EC50 ([4]; W264F, n=2, read-out: EC50) was 2490 nM and the Emax values ([5]; Mean of fit per experiment) was 100. The pEC50 values ([5]; Mean of fit per experiment) was 7.013 and 7.137, the “Span ± SEM (Emax normalized to β-PEA)” value ([5]; n=2) was 100 ± 2.93 and the “pEC50 ± SEM” value ([5]; n=2) was 7.08 ± 0.06. It also gave an EC50 ([5]; n=2, read-out: EC50) of 84.1 nM.
